Experimental data from US20100113613A1, “CYCLOHEXANE POLYALCOHOL FORMULATION FOR TREATMENT OF DISORDERS OF PROTEIN AGGREGATION” (WARATAH PHARMACEUTICALS, priority 2006, published 2010).
Marks after values point to notes of the source that are not given here.

Key:
[1] = system: Aβ plaque burden; assay: TgCRND8 mice 2 month ad libitum treatment from 5 months: Aβ plaque burden; type: in vivo; conditions: 2 months ad libitum from 5 months
[2] = clinical; conditions: human, in vivo
Excerpt: Dose levels were escalated between cohorts, such that the first cohort received the lowest dose level, the middle cohorts received intermediate dose levels, and the final cohort received the highest proposed dose level. Dose escalation was dependent on a review of safety data from the previously dosed cohort. […] Dosing started with the lowest dose and escalated to the highest dose. […] Subjects received their single dose of study drug on the study day 1 (Day 1). Throughout the day on Day 1, subjects were monitored for safety and PK samples were drawn. On Day 2, subjects were monitored for safety and PK samples were drawn.

[3] = Competition of scyllo-inositol uptake by myo-inositol after single oral gavage (FIG. 17); type: in vivo; conditions: co-administration of 0, 50, 200 or 400 μg of myo-inositol
Procedure: FIG. 17. A competition assay with myo-inositol to compete scyllo-inositol uptake, following a single oral gavage dose was examined. (A) Plasma 3^H-scyllo-inositol levels following co-administration of 0, 50, 200 or 400 μg of myo-inositol. Myo-inositol loading appears to alter the kinetics of oral scyllo-inositol uptake in a dose-dependent manner.

[4] = system: TgCRND8 mice
[5] = target: T1, Aβ40 (Homo sapiens, UniProt P05067); assay: TgCRND8 mice 2 month ad libitum treatment from 5 months: brain and plasma Aβ40 ELISA; type: in vivo; conditions: 2 month treatment ad libitum 10 mg/ml from 5 months of age
T1 construct: associated with reduced levels of insoluble Aβ40 and Aβ42 in the brain; from tissue; host or cells: brain homogenate (and plasma) of TgCRND8 transgenic mice
T1 sequence (P05067 672-711): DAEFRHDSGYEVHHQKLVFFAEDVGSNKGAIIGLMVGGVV

[6] = system: plaque burden; assay: TgCRND8 mice therapeutic dosing (5-6 months): plaque burden; type: in vivo; conditions: TgCRND8 mice dosed 5-6 months age, 28 days, 10 mg/ml in drinking water
[7] = system: plaque burden; assay: TgCRND8 effective dose range (0.3-3.3 mg/kg/day, 3 to 4 months): plaque burden; type: in vivo; conditions: TgCRND8 mice
Procedure: The highest possible dose level of scyllo-cyclohexanehexyl compound was administered in a CRND8 mouse model. […]8 mice were dosed for 28 days from 3 to 4 months of age, i.e. a time when the disease phenotype would be newly established. This study design was selected to enhance the efficiency of the study (dose earlier) and maximise the information obtained (dose at a time when changes are of sufficient magnitude to detect a treatment effect). […] Cognitive function and plaque burden were assessed. • Improvement of cognitive function: Animals were assessed using the Morris Water Maze at 4 months (FIG. 11). […] This path length was similar to that observed in previous experiments in mice dosed with the compound in drinking water ad libitum. […] Thus a clear dose response was observed.

[8] = system: long term potentiation; assay: Long term potentiation experiments with amyloid oligomer; conditions: amyloid oligomer concentration 1-2 nM
Procedure: More complex systems provide support for 5 μM (0.9 μg/mL) as an effective local concentration of the scyllo-cyclohexanehexyl. […] The effectiveness of this concentration was confirmed in acute cognitive dysfunction study in rats.

[9] = system: TgCRND8 mice; assay: Morris Water Maze, TgCRND8 mice dosed 3 to 4 months, 3.3-30 mg/kg/day (Example 3); type: in vivo
Procedure: 8 mice were treated with scyllo-cyclohexanehexyl by oral gavage from 3 to 4 months. […] Animals were assessed at 4 months of age. Behavioural tests: Morris Water Maze testing was performed as previously described (Janus C, et al., 2000, Nature 408:979-982). After non-spatial pre-training, mice underwent place discrimination training for 5 days with 4-trials per day. Data were subjected to a repeated measures analysis of variance (ANOVA) with treatment (untreated, scyllo-cyclohexanehexyl) as the between subject factor. Cerebral plaque burden. Brains were removed and one hemisphere was fixed in 4% paraformaldehyde and embedded in paraffin wax in the mid sagittal plane. To generate sets of systematic uniform random sections, 5 μm serial sections were collected across the entire hemisphere. Sets of sections at 50 μm intervals were used for analyses (10-14 sections/set). Plaques were identified after antigen retrieval with formic acid, and incubation with primary anti-Aβ antibody (Dako M-0872), followed by secondary antibody (Dako StreptABCcomplex/horseradish kit). […] Aβ plaque burden was assessed with Leco IA-3001 image analysis software interfaced with Leica microscope and Hitachi KP-M1U CCD video camera. […] Vascular Aβ burden was defined as Aβ plaques originating from or surrounding blood vessels and was analysed similarly. […] The total swim path length to find the hidden platform is evaluated. […]

[10] = system: naturally-expressed oligomers of Aβ; assay: In vitro effect on naturally-expressed Aβ oligomers; conditions: naturally-expressed oligomers at 1-2 nM; 5 μM = 0.9 μg/mL
Sequence of naturally-expressed oligomers of Aβ (P05067 672-711 limits assumed): as the sequence (P05067 672-711) above

In the case of `OC1C(O)C(O)C(O)C(O)C1O` (stereo not shown) [AZD-103, scyllo-inositol], the “growth of plaques by size distribution” value [1] is reported as “effective at inhibiting the growth of plaques of all sizes”, the “percent brain area covered in plaques” value ([1]; P=0.0001) is reported as “significantly reduced” and the “mean elimination half-life (t1/2), range over doses” value ([2]; po) is reported as 13 24. For the same compound, the CL/F ([2]; po, 500 mg) was 13.67 ± 5.49 L/h, the CL/F ([2]; po, 1000 mg) was 8.51 ± 2.78 L/h and the CL/F ([2]; po, 2000 mg) was 9.59 ± 1.80 L/h. The CL/F ([2]; po, 3500 mg) was 7.71 ± 1.59 L/h, the CL/F ([2]; po, 5000 mg) was 10.04 ± 1.49 L/h and the Vd ([2]; male, 7000 mg) was 214 L. The half-life ([2]; male, 7000 mg) was 18.4 h, the “share of the AUC accounted for in the first 12 hrs” value ([2]; male, po) was 80-85% and the AUC(0-inf) ([2]; male, po, 500 mg) was 42.5 ± 22.1 µg·h/mL. The AUC(0-t) ([2]; male, po, 500 mg) was 29.9 ± 7.11 µg·h/mL, the Cmax ([2]; male, po, 500 mg) was 5.83 ± 1.83 µg/mL and the MRT ([2]; male, po, 500 mg) was 19.1 ± 21.8 h. For the same compound, the Tmax ([2]; male, po, 500 mg) was 4 ± 1.55 h, the half-life ([2]; male, po, 500 mg) was 13.3 ± 16.7 h and the AUC(0-inf) ([2]; male, po, 1000 mg) was 130 ± 44.4 µg·h/mL. It also gave a Cmax ([2]; male, po, 1000 mg) of 17 ± 5.29 µg/mL, an MRT ([2]; male, po, 1000 mg) of 19.7 ± 3.17 h and a Tmax ([2]; male, po, 1000 mg) of 3.25 ± 1.47 h. The half-life ([2]; male, po, 1000 mg) was 22.5 ± 5.75 h, the AUC(0-inf) ([2]; male, po, 2000 mg) was 215 ± 41.9 µg·h/mL and the AUC(0-t) ([2]; male, po, 2000 mg) was 194 ± 36.1 µg·h/mL. The Cmax ([2]; male, po, 2000 mg) was 33.1 ± 7.57 µg/mL, the MRT ([2]; male, po, 2000 mg) was 16.3 ± 3.99 h and the Tmax ([2]; male, po, 2000 mg) was 2.75 ± 0.61 h. The half-life ([2]; male, po, 2000 mg) was 23.9 ± 7.24 h, the AUC(0-inf) ([2]; male, po, 3500 mg) was 467 ± 77.7 µg·h/mL and the AUC(0-t) ([2]; male, po, 3500 mg) was 441 ± 71.4 µg·h/mL. It also gave a Cmax ([2]; male, po, 3500 mg) of 74.6 ± 9.24 µg/mL, an MRT ([2]; male, po, 3500 mg) of 11 ± 1.43 h and a Tmax ([2]; male, po, 3500 mg) of 2.75 ± 0.61 h. The half-life ([2]; male, po, 3500 mg) was 20.3 ± 3.09 h, the AUC(0-inf) ([2]; male, po, 5000 mg) was 507 ± 72 µg·h/mL and the AUC(0-t) ([2]; male, po, 5000 mg) was 491 ± 73.2 µg·h/mL. It also gave a Cmax ([2]; male, po, 5000 mg) of 110 ± 26.9 µg/mL, an MRT ([2]; male, po, 5000 mg) of 8.23 ± 2 h and a Tmax ([2]; male, po, 5000 mg) of 2.42 ± 0.66 h. For the same compound, the half-life ([2]; male, po, 5000 mg) was 16.9 ± 7.1 h, the AUC(0-inf) ([2]; male, po, 7000 mg) was 885 ± 151 µg·h/mL and the AUC(0-t) ([2]; male, po, 7000 mg) was 860 ± 148 µg·h/mL. For the same compound, the Cmax ([2]; male, po, 7000 mg) was 155 ± 20.4 µg/mL, the Tmax ([2]; male, po, 7000 mg) was 2.42 ± 0.67 h and the half-life ([2]; male, po, 7000 mg) was 18.4 ± 4.64 h. For the same compound, the “brain levels of scyllo-inositol at 4 h following myo-inositol administration” value [3] was “not significantly changed”, the “twice-daily oral gavage vs one daily dose at equivalent doses, reversing cognitive deficits” value ([4]; TgCRND8 mice, dose finding studies) was “more effective than one daily dose” and the “adverse effects in the mice” value ([4]; mouse, in vivo) was “no evidence of adverse effects”. For the same compound, the “Plasma Aβ levels Aβ40” value [5] was 4507 ± 207 pg/mL, the “Mean Plaque Size” value [6] was 336 ± 6* μm^2 and the “Total Plaque Area” value [6] was 420027 ± 14986* μm^2.

In the case of scyllo-inositol [AZD-103], the “plaque parameters (plaque count and brain plaque area)” value (“plaque parameters” for short) ([7]; 0.3 mg/kg/day, 28 days from 3 to 4 months) is reported as “indistinguishable from untreated controls”, the “plaque parameters” value ([7]; 1 mg/kg/day, plaque count p=0.02, plaque area p=0.011) is reported as “significantly reduced” and the “plaque parameters” value ([7]; 3.3 mg/kg/day, plaque count p<0.0001, plaque area p<0.001) is reported as “greatest reduction in plaque burden”. For the same compound, the “lowest maximally-effective dose level” value [8] was 5 µM, the “maximally efficacious dose level” value ([9]; Morris Water Maze, TgCRND8 mice aged 4 months, oral twice daily) was 3.3 mg/kg/day and the “swim path length (Morris Water Maze) after 5 days of assessment vs placebo” value ([9]; TgCRND8 mice treated 3 to 4 months, all dose levels, p=0.003, 0.008, 0.002 for 3.3, 10 and 30 mg/kg/day) was “significantly shorter”. The “concentration showing greater consistency of effect” value [10] was 5 µM.
